According to article PMC3176258, “A genomic biomarker signature can predict skin sensitizers using a cell-based in vitro alternative to animal tests” (BMC Genomics, 2011):
≈ marks a conversion by molar mass, not a printed value. Like-named read-outs stand apart in the source and are kept apart here.

Assays:
[1] = system: MUTZ-3 cells; experiment: CD86 cell surface expression by flow cytometry after 24 h stimulation; assay type: cell-based, human; details: for CD86 surface expression: flow cytometry, Student's t test
Experimental: CD86 is the most extensively studied biomarker for sensitization to date, using e.g. monocyte derived dendritic cells (MoDCs) or human cell lines and their progenitors, such as THP-1, U-937 and KG-1. Thus, as a reference, cell surface expression of CD86 was measured with flow cytometry after 24 h stimulation, using 20 sensitizers and 20 non-sensitizers, as well as vehicle controls (Figure 2). […]. […] Consequently, CD86 cannot classify skin sensitizers, using a system based on MUTZ-3 cells.
No differentiating steps were performed. […] Thereafter, cells were harvested and analyzed by flow cytometry.
All cell surface staining and washing steps were performed in PBS containing 1% BSA (w/v). Cells were incubated with specific mouse mAbs for 15 min at 4°C. The following mAbs were used for flow cytometry: FITC-conjugated CD1a (DakoCytomation, Glostrup, Denmark), CD34, CD86, and HLA-DR (BD Biosciences), PE-conjugated CD14 (DakoCytomation), CD54 and CD80 (BD Biosciences). Mouse IgG1, conjugated to FITC or PE were used as isotype controls (BD Biosciences) and PI was used to assess cell viability. FACSDiva software was used for data acquisition with FACSCanto II instrument (BD Bioscience). 10,000 events were acquired and gates were set based on light scatter properties to exclude debris and nonviable cells. Further data analysis was performed using FCS Express V3 (De Novo Software, Los Angeles, CA).

[2] = system: mice; details: cited from earlier work
[3] = system: MUTZ-3 cells; experiment: Transcriptional profiling (Affymetrix Human Gene 1.0 ST arrays, PCA) after 24 h stimulation; assay type: cell-based; details: for Potency predicted by Prediction Signature gene expression profile: 200 transcripts, PCA, compared with LLNA potency, Figure 4C
[4] = system: MUTZ-3 cells; experiment: Cytotoxicity by propidium iodide, relative viability
Experimental: A panel of 40 chemical compounds, consisting of 20 sensitizers and 20 non-sensitizers were used for cell stimulations. […] All chemicals were from Sigma-Aldrich, St. Louis, MO, USA. Compounds were dissolved in either dimethyl sulfoxide (DMSO) or distilled water. Prior to stimulations, the cytotoxicity of all compounds was monitored, using propidium iodide (PI) (BD Biosciences, San Diego, CA) using protocol provided by the manufacturer. The relative viability of stimulated cells was calculated as [drawing 1]
For toxic compounds, the concentration yielding 90% relative viability (Rv90) was used. For non-toxic compounds, a concentration of 500 μM was used. For non-toxic compounds that were insoluble at 500 μM in medium, the highest soluble concentration was used. For compounds dissolved in DMSO, the final concentration of DMSO in each well was 0.1%.
The human myeloid leukemia-derived cell line MUTZ-3 (DSMZ, Braunschweig, Germany) was maintained in α-MEM (Thermo Scientific Hyclone, Logan, UT) supplemented with 20% (volume/volume) fetal calf serum (Invitrogen, Carlsbad, CA) and 40 ng/ml rhGM-CSF (Bayer HealthCare Pharmaceuticals, Seattle, WA), as described. Cultures were maintained at 200.000 cells/ml during expansion, with a media change every 3-4 days. No differentiating steps were performed. Instead, the proliferating progenitor MUTZ-3 was used for stimulations, as delivered by the supplier. Prior to each experiment, the cells were immunophenotyped using flow cytometry as a quality control. Cells were seeded in 6-well plates at 200.000 cells/ml. Stock solutions of each compound were prepared in either DMSO or distilled water, and were subsequently diluted so the in-well concentrations corresponded to the Rv90 value, and in-well concentrations of DMSO were 0.1%. Cells were incubated for 24 h at 37°C and 5% CO2. Thereafter, cells were harvested and analyzed by flow cytometry. In parallel, harvested cells were lysed in TRIzol reagent (Invitrogen) and stored at -20°C until RNA extraction. Stimulations with chemicals were performed in three individual experiments, so that triplicates samples were obtained.

[5] = physchem; details: aqueous buffer, kinetic from dmso stock
[6] = Max solubility in medium; details: aqueous buffer, kinetic from dmso stock
[7] = sensitizing potency category according to LLNA, ref (14, 15, 45-48)
[8] = 1010 transcripts, one-way ANOVA, one or more replicate, Figure 3B
[9] = 1137 genes, multi-group ANOVA, Figure 3D
[10] = concentration yielding 90% relative viability, propidium iodide

For `Oc1cccc(O)c1` [Resorcinol], the CD86 surface expression [1] is listed as “significantly up-regulated”, the Potency [2, 7] is listed as “Moderate [48]” and the “PCA grouping, sensitizing vs. non-sensitizing chemicals” value [3, 8] is listed as “grouped together with the control group”. For the same molecule, the “PCA grouping, each individual stimulation” value [3, 9] was “group together, separate from the negative group”.
For `O=CC=O` [Glyoxal], the Rv90 [4] is given as 300 µM, the Potency ([2]; mouse, in vivo) is given as “Moderate [46]” and the “Potency predicted by Prediction Signature gene expression profile” value (shortened to “Potency predicted”) [3] is given as “grouped together with weak sensitizers”. For the same molecule, the “PCA grouping, sensitizing vs. non-sensitizing chemicals” value [3, 8] was “grouped together with the control group”.
In the case of `CCO/C=C1\N=C(c2ccccc2)OC1=O` [Oxazolone], the Potency ([2]; mouse, in vivo) is given as “Extreme [15]”.
In the case of `Oc1ccccc1` [Phenol], the “PCA grouping, sensitizing vs. non-sensitizing chemicals” value [3] is reported as “grouped closely with the sensitizers”.
In the case of `Sc1nc2ccccc2s1` [2-Mercaptobenzothiazole], the solubility [5] is listed as 250 µM (≈ 41.8 µg/mL), the CD86 surface expression [1] is listed as “significantly up-regulated” and the Potency [2, 7] is listed as “Moderate [46]”. For the same molecule, the “PCA grouping, each individual stimulation” value [3, 9] was “group together, separate from the negative group”.
For `O=[N+]([O-])c1ccc(Cl)c([N+](=O)[O-])c1` [2,4-Dinitrochlorobenzene], the CD86 surface expression [1] is given as “significantly up-regulated”, the Rv90 [4, 10] is given as 4 µM and the Potency ([2]; mouse, in vivo) is given as “Extreme [15]”. For the same molecule, the “PCA grouping, each individual stimulation” value [3, 9] was “group together, separate from the negative group”.
With `Nc1ccc(N)c([N+](=O)[O-])c1` [2-nitro-1,4-Phenylendiamine] the CD86 surface expression [1] was “significantly up-regulated” and the “PCA grouping, each individual stimulation” value [3, 9] was “group together, separate from the negative group”.
For `O=C(O)c1ccc(O)cc1` [p-Hydroxybenzoic acid], the solubility [5] was 250 µM (≈ 34.5 µg/mL).
In the case of `C=O` [Formaldehyde], the Rv90 [4] is given as 80 µM, the Potency ([2]; mouse, in vivo) is given as “Strong [15]” and the “PCA grouping, each individual stimulation” value [3] is given as “group together, separate from the negative group”.
For `C=CCc1ccc(O)c(OC)c1` [Eugenol], the Rv90 ([4]; human, 24 h) is listed as 300 µM, the Potency ([2]; mouse, in vivo) is listed as “Weak [47]” and the “PCA grouping, sensitizing vs. non-sensitizing chemicals” value [3, 8] is listed as “grouped together with the control group”.
In the case of Tween 80, the “PCA grouping, sensitizing vs. non-sensitizing chemicals” value [3, 8] is reported as “grouped closely with the sensitizers”.
For `NCCN` [Ethylendiamine], the Potency ([2]; mouse, in vivo) is given as “Moderate [14]”, the “Potency predicted” value [3] is given as “grouped together with weak sensitizers” and the “PCA grouping, sensitizing vs. non-sensitizing chemicals” value [3, 8] is given as “grouped together with the control group”.
For Isoeugenol, the “PCA grouping, sensitizing vs. non-sensitizing chemicals” value [3, 8] was “grouped together with the control group”.
In the case of `OC/C=C/c1ccccc1` [Cinnamic alcohol], the solubility [5] is given as 500 µM (≈ 67.1 µg/mL), the Potency [2, 7] is given as “Weak [46]” and the “PCA grouping, each individual stimulation” value [3, 9] is given as “group together, separate from the negative group”.
`Clc1ccccc1` [Chlorobenzene] gave a solubility [6] of 98 µM (≈ 11 µg/mL).
For `O=C/C=C/c1ccccc1` [Cinnamaldehyde], the CD86 surface expression [1] is listed as “significantly up-regulated”, the Rv90 [4, 10] is listed as 120 µM and the Potency [2, 7] is listed as “Moderate [47]”.
With `CCCCCCCC(=O)O` [Octanoic acid] the “PCA grouping, sensitizing vs. non-sensitizing chemicals” value [3, 8] was “grouped closely with the sensitizers”.
For `C=CC(=O)OCCO` [2-Hydroxyethyl acrylate], the CD86 surface expression [1] was “significantly up-regulated”, the Rv90 [4, 10] was 100 µM and the “Potency predicted” value [3] was “showed resemblance to strong and extreme sensitizers”. The “PCA grouping, each individual stimulation” value [3, 9] was “group together, separate from the negative group”.
In the case of `Nc1ccc(N)cc1` [p-Phenylendiamine], the CD86 surface expression [1] is given as “significantly up-regulated”, the Rv90 [4] is given as 75 µM and the Potency [2, 7] is given as “Strong [47]”. The “PCA grouping, each individual stimulation” value [3, 9] was “group together, separate from the negative group”.
In the case of `[K+].[K+].[O]=[Cr](=[O])([O-])[O][Cr](=[O])(=[O])[O-]` [Potassium dichromate], the CD86 surface expression [1] is listed as “significantly up-regulated”, the Potency ([2]; mouse, in vivo) is listed as “Extreme [14]” and the “PCA grouping, each individual stimulation” value [3] is listed as “discrete profile”.
In the case of `CC1(C)S[C@@H]2[C@H](NC(=O)Cc3ccccc3)C(=O)N2[C@H]1C(=O)O` [Penicillin G], the “PCA grouping, sensitizing vs. non-sensitizing chemicals” value [3, 8] is reported as “grouped together with the control group”.
Molecule `CCCCCCCCCCCCOS(=O)(=O)[O-].[Na+]` [Sodium dodecyl sulphate] has a Rv90 [4] of 200 µM.
In the case of `O=Cc1ccccc1` [Benzaldehyde], the solubility [5] is reported as 250 µM (≈ 26.5 µg/mL).
In the case of `CCCCCCC(C=O)=Cc1ccccc1` [Hexylcinnamic aldehyde], the solubility [5] is given as 32.3 µM (≈ 7 µg/mL), the Potency [2, 7] is given as “Moderate [15]” and the “Potency predicted” value [3] is given as “grouped together with weak sensitizers”. The “PCA grouping, sensitizing vs. non-sensitizing chemicals” value [3, 8] was “grouped together with the control group”.
In the case of `Nc1ccccc1O` [2-Aminophenol], the CD86 surface expression [1] is reported as “significantly up-regulated”, the “frequency of CD86-positive cells” value ([1]; one representative experiment out of three, Figure 2A) is reported as 60.4% and the Rv90 [4, 10] is reported as 100 µM. For the same molecule, the Potency ([2]; mouse, in vivo) was “Strong [46]” and the “PCA grouping, each individual stimulation” value [3] was “group together, separate from the negative group”.
